From patent US20240199611A1, “ANTIBACTERIAL COMPOUNDS” (JANSSEN SCIENCES IRELAND UNLIMITED COMPANY, priority 2021, published 2024)
Read-outs that look alike come from different tables or passages of the source.

What was measured:
[1] = format: physicochemical; details: 30 μM; for chemical stability (% by LCMS), DMSO: 0 h; for chemical stability (% by LCMS), ACN/H2O / chemical stability (% by LCMS), ACN/0.1N HCl: 48 h; for chemical stability (% by LCMS), ACN/0.1N HCl: pH 1.6
Experimental: Chemical Stability Testing
Preliminary Protocol • Add 3 μl of a 10 mM DMSO stock solution to 1 ml of the following solvents in a 1.5 ml HPLC vial. • DMSO (reference solution) • H2O/Acetonitril 1/1 (assay solution) • 0.1N HCl/Acetonitril 1/1 (assay solution) • Mix well, […] LCMS • Compare the chromatograms of the two assay solutions with the reference solution and report the additional peaks as degradation peaks

[2] = tested on: Mycobacterium tuberculosis strain EH4.0 expressing green-fluorescent protein (GFP); experiment: microbe, parasite or virus in culture; format: cell-based; details: read-out: pIC50 (converted)
Na Ch = experiment: CVS Na Ch
[3] = Mitochondrial toxicity (Glu/Gal) assay; format: cell-based
Text: The compounds of the invention/examples may have advantages associated with in vitro potency, kill kinetics (i.e. bactericidal effect) in vitro, PK properties, food effect, safety/toxicity (including liver toxicity, coagulation, 5-LO oxygenase), metabolic stability, Ames II negativity, MNT negativity, aqueous based solubility (and ability to formulate) and/or cardiovascular effect e.g. on animals (e.g. anesthetized guinea pig). The data below that was generated/calculated may be obtained using standard methods/assays, for instance that are available in the literature or which may be performed by a supplier (e.g. Microsomal Stability Assay—Cyprotex, Mitochondrial toxicity (Glu/Gal) assay—Cyprotex, as well as literature CYP cocktail inhibition assays). In some instances, GSH was measured (reactive metabolites, glucuronidation) to observe if a dihydrodiol is observed by LCMS (fragmentation ions), which would correspond to a dihydroxylation on the core heterocycle.

Ca Ch = details: read-out: CVS Ca Ch IC50
[4] = in vivo

SMILES | chemical stability (% by LCMS), DMSO [1] [%] | chemical stability (% by LCMS), ACN/H2O [1] [%] | chemical stability (% by LCMS), ACN/0.1N HCl [1] [%] | IC50 ([2]; Test 1 (and/or Test 2)) [nM] | melting point [°C] | also measured
CCc1nc2ncc(C)cn2c1C(=O)NCc1ccc(N2CCN(S(=O)(=O)C(F)(F)F)C(C(C)C)=N2)c(F)c1 [Compound 248] | 92 | 100 | 100 | 0.224 | – | –
CCc1nc2ccc(Cl)cn2c1C(=O)NCc1ccc(N2CCN(c3nccs3)C(OC)=N2)cc1 [Compound 54] | – | – | – | 11 | 233.23 | –
CCc1nc2ccc(COC)cn2c1C(=O)NCc1ccc(N2CCN(S(=O)(=O)C(F)(F)F)C=N2)cc1 [Compound 43] | – | – | – | 10 | 169.05 | –
CCc1nc2ncc(Cl)cn2c1C(=O)NCc1cc(F)c(N2CCN(S(=O)(=O)C(F)(F)F)C=N2)c(F)c1 [Compound 47] | – | – | – | 3.16 | 149.44 | –
CCc1nc2ccc(C)cn2c1C(=O)NCc1ccc(N2CCN(S(=O)(=O)C(F)(F)F)C(C(N)=O)=N2)cc1 [Compound 260] | 98 | 100 | 100 | 32.4 | – | –
COCc1nc2ccc(Cl)cn2c1C(=O)NCc1ccc(N2CCN(S(=O)(=O)C(F)(F)F)C=N2)cc1 [Compound 8] | – | – | – | – | 167.12 | IC50 [2]: 251 nM
Cc1ccc2nc(C(F)F)c(C(=O)NCc3ccc(N4CCN(S(=O)(=O)C(F)(F)F)C(C(C)C)=N4)c(F)c3)n2c1 [Compound 240] | 100 | 100 | 100 | 0.603 | – | –
CCc1nc2ccc(C)cn2c1C(=O)NCc1ccc(N2CCN(S(=O)(=O)C(F)(F)F)C(C(=O)N(C)C)=N2)cc1 [Compound 259] | 98 | 100 | 100 | – | – | IC50 [2]: 10.7 nM
CC1=NN(c2ccc(CNC(=O)c3c(C(F)(F)F)nc4ccccn34)cc2F)CCN1S(=O)(=O)C(F)(F)F [Compound 252] | 99 | 99 | 99 | 1.2 | – | –
CCc1nc2cc(C)c(C)cn2c1C(=O)NCc1ccc(N2CCN(S(=O)(=O)C(F)(F)F)C(C(C)C)=N2)c(F)c1 [Compound 241] | 100 | 100 | 100 | 3.47 | – | –
CCC1=NN(c2ncc(CNC(=O)c3c(CC)nc4ncc(C)cn34)cc2F)CCN1S(=O)(=O)C(F)(F)F [Compound 235] | 99 | 99 | 98 | 6.31 | – | –
CCc1nc2ncc(C)cn2c1C(=O)NCc1cnc(N2CCN(S(=O)(=O)C(F)(F)F)C(C)=N2)c(F)c1 [Compound 255] | 100 | 100 | 98 | 6.17 | – | –
CCc1nc2ccc(Cl)cn2c1C(=O)NCc1ccc(N2CCN(S(=O)(=O)C(F)(F)F)C=N2)c(OC)c1 [Compound 25] | – | – | – | 10 | 125.56 | –
CCC1=NN(c2ccc(CNC(=O)c3c(CC)nc4ncc(C)cn34)cc2F)CCN1S(=O)(=O)C(F)(F)F [Compound 234] | 96 | 95 | 97 | 0.324 | – | –
CCc1nc2c(F)cc(Cl)cn2c1C(=O)NCc1ccc(N2CCN(S(=O)(=O)C(F)(F)F)C(C3CC3)=N2)c(F)c1 [Compound 231] | 98 | 98 | 98 | 0.891 | – | –
CCc1nc2c(F)cc(Cl)cn2c1C(=O)NCc1ccc(N2CCN(S(=O)(=O)C(F)(F)F)C(C(C)C)=N2)c(F)c1 [Compound 238] | 100 | 100 | 100 | 1.58 | – | –
CCC1=NN(c2ccc(CNC(=O)c3c(C(F)(F)F)nc4ccccn34)cc2F)CCN1S(=O)(=O)C(F)(F)F [Compound 233] | 99 | 99 | 99 | 1.07 | – | –

SMILES | chemical stability (% by LCMS), DMSO [1] [%] | chemical stability (% by LCMS), ACN/H2O [1] [%] | chemical stability (% by LCMS), ACN/0.1N HCl [1] [%] | IC50 ([2]; Test 1 (and/or Test 2)) [nM] | melting point [°C] | also measured
CCc1nc2ccc(Cl)cn2c1C(=O)NCc1ccc(N2CCN(S(=O)(=O)C(F)(F)F)C=N2)cc1F [Compound 16] | – | – | – | – | 158.1 | IC50 (Na Ch): > 10000 nM
CCc1nc2ccc(OC)cn2c1C(=O)NCc1ccc(N2CCN(S(=O)(=O)C(F)(F)F)C(OC)=N2)cc1 [Compound 36] | – | – | – | 3.98 | 142.03 | –
CCc1nc2ccc(Cl)cn2c1C(=O)NCc1ccc(N2CCN(S(=O)(=O)C(F)(F)F)C=N2)cc1 [Compound 1] | – | – | – | – | 183.46 | Glu/Gal assay ratio (mitotoxicity) [3]: < 3; IC50 (Ca Ch): > 10000 nM; bioavailability [4]: good bioavailability
CCc1nc2ccc(Cl)cn2c1C(=O)NCc1ccc(N2CCN(S(C)(=O)=O)C=N2)cc1 [Compound 20] | – | – | – | – | 209.36 | IC50 (Ca Ch): > 10000 nM
CCc1nc2ccc(Cl)cn2c1C(=O)NCc1ccc(N2CCN(S(=O)(=O)C(F)(F)F)C=N2)c(F)c1 [Compound 9] | – | – | – | – | – | IC50 (Na Ch): > 10000 nM
CCc1nc2ccc(C)cn2c1C(=O)NCc1ccc(N2CCN(S(=O)(=O)C(F)(F)F)C(C(=O)OC)=N2)cc1 [Compound 258] | 99 | 99 | 100 | 6.17 | – | –
CC1=NN(c2ccc(CNC(=O)c3c(C(F)(F)F)nc4ccc(C)cn34)cc2F)CCN1S(=O)(=O)C(F)(F)F [Compound 253] | 100 | 100 | 100 | 1.86 | – | –
CCc1nc2ccc(C)cn2c1C(=O)NCc1cnc(N2CCN(S(=O)(=O)C(F)(F)F)C(C3CC3)=N2)c(F)c1 [Compound 232] | – | – | – | 1.51 | – | –
O=C(NCc1ccc(N2CCN(S(=O)(=O)C(F)(F)F)C=N2)c(F)c1)c1c(C(F)(F)F)nc2ccc(Cl)cn12 [Compound 124] | – | – | – | 10 | – | –
CCc1nc2ccc(Cl)cn2c1C(=O)NCc1ccc(N2CCN(S(=O)(=O)C(F)(F)F)C(OC)=N2)cc1 [Compound 6] | – | – | – | – | – | IC50 (Na Ch): > 10000 nM; Glu/Gal assay ratio (mitotoxicity) [3]: < 3
CC(C)C1=NN(c2ccc(CNC(=O)c3c(C(F)(F)F)nc4ccccn34)cc2F)CCN1S(=O)(=O)C(F)(F)F [Compound 247] | 96 | 100 | 100 | 1.38 | – | –
CC1=NN(c2ccc(CNC(=O)c3c(C(F)(F)F)nc4ncc(C)cn34)cc2F)CCN1S(=O)(=O)C(F)(F)F [Compound 257] | 99 | 99 | 99 | 6.03 | – | –
CCc1nc2ncc(C)cn2c1C(=O)NCc1ccc(N2CCN(S(=O)(=O)C(F)(F)F)C(C)=N2)c(F)c1 [Compound 251] | 100 | 100 | 100 | 0.437 | – | –
COC1=NN(c2ccc(CNC(=O)c3nnc4ccc(Br)cn34)cc2F)CCN1S(=O)(=O)C(F)(F)F [Compound 94] | – | – | – | – | – | IC50 [2]: 38.9 nM
CCc1nc2ncc(Cl)cn2c1C(=O)NCc1ccc(N2CCN(S(=O)(=O)C(F)(F)F)C=N2)cc1 [Compound 13] | – | – | – | – | 215.87 | IC50 (Na Ch): > 10000 nM
CCc1nc2cc(C)c(C)cn2c1C(=O)NCc1ccc(N2CCN(S(=O)(=O)C(F)(F)F)C(C(C)C)=N2)cc1 [Compound 245] | – | – | – | 13.8 | – | –
